Measurements taken from patent US20210070684A1, “PRODUCTION OF HIGHLY PURE META,META-COUPLED BIS(4-ALKYLPHENOL) DERIVATIVES AND USES THEREOF” (KATHOLIEKE UNIVERSITEIT LEUVEN, priority 2017, published 2021).

SMILES: COc1cc(C)c(Cc2cc(O)c(OC)cc2C)cc1O [Reference Example 1, 5,5′-methylenebis(2-methoxy-4-methylphenol)]
- melting point: 134 to 136 °C
